From the supplement of paper PMC10307832

What was measured:
Assay in all cases: relative viability (nuclei count vs DMSO), 5 days (fraction); higher = more cells survive
[1] = compound: CCOC1=CC=CC=C1N=NC2=C(NN(C2=O)C3=NC(=CS3)C4=CC=CC=C4)C [BAM7] + C[C@]1(O)C[C@@H](c2nc(-c3ccc4ccc(-c5ccccc5)nc4c3)c3c(N)nccn32)C1 [Linsitinib] (partner 1 µM)
Outline: (§1)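 Relative viability equals treated-well nuclei counts divided by vehicle-well nuclei counts. Counts came from 4× images of lung cancer cell lines grown in 1536-well plates for 5 days after pin-tool dosing on the day after seeding. Dosing used one drug alone or a fixed anchor-drug dose plus five library-drug doses (not always all listed) in √10 steps, and values are medians of duplicate plates.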

[2] = compound: CCOC1=CC=CC=C1N=NC2=C(NN(C2=O)C3=NC(=CS3)C4=CC=CC=C4)C [BAM7] + CC(=O)Nc1cccc(-n2c(=O)n(C3CC3)c(=O)c3c(Nc4ccc(I)cc4F)n(C)c(=O)c(C)c32)c1 [Trametinib] (partner 0.02 µM)
Outline: as §1

[3] = compound: CCOC1=CC=CC=C1N=NC2=C(NN(C2=O)C3=NC(=CS3)C4=CC=CC=C4)C [BAM7] + Cc1nc(Nc2ncc(C(=O)Nc3c(C)cccc3Cl)s2)cc(N2CCN(CCO)CC2)n1 [Dasatinib] (partner 0.075 µM)
Outline: as §1

[4] = compound: CCOC1=CC=CC=C1N=NC2=C(NN(C2=O)C3=NC(=CS3)C4=CC=CC=C4)C [BAM7] + CC1(C)CCC(c2ccc(Cl)cc2)=C(CN2CCN(c3ccc(C(=O)NS(=O)(=O)c4ccc(N[C@H](CCN5CCOCC5)CSc5ccccc5)c(S(=O)(=O)C(F)(F)F)c4)cc3)CC2)C1 [Navitoclax] (partner 0.5 µM)
Outline: as §1

[5] = compound: CCOC1=CC=CC=C1N=NC2=C(NN(C2=O)C3=NC(=CS3)C4=CC=CC=C4)C [BAM7] + CC(=O)c1c(C)c2cnc(Nc3ccc(N4CCNCC4)cn3)nc2n(C2CCCC2)c1=O [Palbociclib] (partner 0.5 µM)
Outline: as §1

Cell Line	relative viability ([1]; first compound 0.5 µM)	relative viability ([1]; first compound 5 µM)	relative viability ([1]; first compound 15.81 µM)	relative viability ([1]; first compound 50 µM)	relative viability ([2]; first compound 0.5 µM)	relative viability ([2]; first compound 5 µM)	relative viability ([2]; first compound 15.81 µM)	relative viability ([2]; first compound 50 µM)	relative viability ([3]; first compound 0.5 µM)	relative viability ([3]; first compound 5 µM)	relative viability ([3]; first compound 15.81 µM)	relative viability ([3]; first compound 50 µM)	relative viability ([4]; first compound 0.5 µM)	relative viability ([4]; first compound 5 µM)	relative viability ([4]; first compound 15.81 µM)	relative viability ([4]; first compound 50 µM)	relative viability ([5]; first compound 0.5 µM)	relative viability ([5]; first compound 5 µM)	relative viability ([5]; first compound 15.81 µM)	relative viability ([5]; first compound 50 µM)
201T	1.04	1.09	0.963	1.03	0.742	0.738	0.71	0.708	0.659	0.56	0.461	0.497	1.18	1.27	1.12	1.03	0.358	0.336	0.307	0.335
A549	0.658	0.617	0.57	0.559	–	–	–	–	–	–	–	–	1.34	1.27	1.16	1.27	–	–	–	–
A-427	1.14	1.1	1.05	1.14	0.765	0.809	0.752	0.911	0.845	0.71	0.664	0.826	0.991	0.921	0.974	0.971	0.507	0.49	0.498	0.532
ABC-1	0.883	1.18	0.815	0.758	–	–	–	–	0.675	0.624	0.496	0.61	–	–	–	–	0.548	0.667	0.774	0.584
BEN	0.914	0.97	0.876	0.898	1.04	1.1	0.851	1.05	0.351	0.351	0.323	0.42	0.0506	0.068	0.0675	0.068	0.491	0.493	0.546	0.492
CAL-12T	0.929	0.743	0.75	0.852	0.381	0.333	0.303	0.384	0.507	0.326	0.402	0.337	1.1	1.2	1.14	1.26	0.593	0.372	0.419	0.513
COR-L23	0.979	0.989	0.852	0.852	0.519	0.58	0.614	0.657	0.476	0.481	0.385	0.502	1.03	1.15	0.986	0.955	0.284	0.315	0.294	0.275
COR-L 105	1.14	0.801	1	0.97	0.404	0.525	0.466	0.272	0.308	0.407	0.455	0.501	0.825	0.664	0.784	0.826	0.407	0.387	0.373	0.41
Calu-6	1.1	1.11	0.913	1.02	–	–	–	–	–	–	–	–	0.911	0.919	0.906	0.824	–	–	–	–
ChaGo-K-1	–	–	–	–	0.894	0.895	0.853	0.842	0.641	0.523	0.507	0.726	0.882	1.18	1.11	1.08	1.02	0.965	0.819	0.902
EBC-1	0.856	1.07	0.876	0.85	–	–	–	–	–	–	–	–	0.403	0.389	0.382	0.423	–	–	–	–
EKVX	1.05	1.04	0.729	0.831	0.474	0.301	0.294	0.308	0.604	0.586	0.31	0.41	1.13	0.982	0.71	1.01	0.444	0.39	0.337	0.429
EMC-BAC-2	0.904	0.838	0.786	0.823	0.941	0.944	0.941	1.02	0.301	0.366	0.331	0.394	1.2	1.23	1.08	1.17	0.512	0.519	0.524	0.563
EPLC-272H	1.45	1.11	1.33	1.24	0.292	0.31	0.252	0.28	0.369	–	0.346	0.434	1.32	1.21	1.15	1.17	0.349	0.315	0.327	0.351
H3255	0.901	1.02	0.606	0.848	0.539	0.607	0.507	0.555	0.397	0.34	0.483	0.788	0.473	0.51	0.525	0.577	0.337	0.341	0.359	0.355
HARA	1.08	1.14	0.864	1.08	0.827	0.886	0.607	1.13	0.293	0.403	0.291	0.328	1.19	1.19	1.08	1.16	0.253	0.224	0.229	0.243
